Test results from PubChem BioAssay (NCI).
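Cells were grown in 96-well plates and exposed to each compound for 48 hours at five concentrations; endpoints were interpolated linearly between bracketing concentrations, or set to the highest concentration if not reached. GI50 = concentration required for 50% inhibition of growth. At the TGI there is no net growth.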

What was measured:
Test in all cases: NCI anticancer screen, dose series, 48 h
[1] = system: 786-0 renal
[2] = system: A498 renal
[3] = system: A549 NSCLC
[4] = system: ACHN renal
[5] = system: CAKI-1 renal
[6] = system: CCRF-CEM leukemia
[7] = system: COLO 205 colon
[8] = system: DLD-1 colon
[9] = system: DMS 114 small cell lung
[10] = system: EKVX NSCLC
[11] = system: HCC-2998 colon
[12] = system: HCT-116 colon
[13] = system: HCT-15 colon
[14] = system: HL-60(TB) leukemia
[15] = system: HOP-18 NSCLC
[16] = system: HOP-62 NSCLC
[17] = system: HOP-92 NSCLC
[18] = system: HT29 colon
[19] = system: IGROV1 ovarian
[20] = system: K-562 leukemia
[21] = system: KM12 colon
[22] = system: KM20L2 colon
[23] = system: LOX IMVI melanoma
[24] = system: LXFL 529 NSCLC
[25] = system: M14 melanoma
[26] = system: M19-MEL melanoma
[27] = system: MALME-3M melanoma
[28] = system: MOLT-4 leukemia
[29] = system: NCI-H226 lung
[30] = system: NCI-H23 lung
[31] = system: NCI-H460 lung
[32] = system: OVCAR-3 ovarian
[33] = system: OVCAR-4 ovarian
[34] = system: OVCAR-5 ovarian
[35] = system: OVCAR-8 ovarian
[36] = system: RPMI-8226 leukemia
[37] = system: SF-295 CNS
[38] = system: SF-539 CNS
[39] = system: SK-MEL-2 melanoma
[40] = system: SK-MEL-5 melanoma
[41] = system: SK-OV-3 ovarian
[42] = system: SN12C renal
[43] = system: SNB-19 CNS
[44] = system: SNB-75 CNS
[45] = system: SNB-78 CNS
[46] = system: SW-620 colon
[47] = system: TK-10 renal
[48] = system: U251 CNS
[49] = system: UACC-257 melanoma
[50] = system: UACC-62 melanoma
[51] = system: UO-31 renal
[52] = system: XF 498 CNS
[53] = system: RXF 393 renal
[54] = system: SF-268 CNS
[55] = system: SK-MEL-28 melanoma
[56] = system: SR leukemia
[57] = system: DMS 273 small cell lung
[58] = system: NCI-H522 lung

Compound: O=C(N/N=C/c1cc(Cl)cc(Cl)c1[O-])c1ccccc1.O=C(N/N=C/c1cc(Cl)cc(Cl)c1[O-])c1ccccc1.[Co+2]
- GI50 [1]: 10.4 µM
- TGI [1]: > 100 µM
- GI50 [2]: 34.4 µM
- TGI [2]: > 100 µM
- GI50 [3]: 28.8 µM
- TGI [3]: > 100 µM
- GI50 [4]: 16.7 µM
- TGI [4]: > 100 µM
- GI50 [5]: 21.7 µM
- TGI [5]: > 100 µM
- GI50 [6]: 3.43 µM
- TGI [6]: 19.6 µM
- GI50 [7]: 42.1 µM
- TGI [7]: > 100 µM
- GI50 [8]: 14.7 µM
- TGI [8]: > 100 µM
- GI50 [9]: 10.6 µM
- TGI [9]: 67.9 µM
- GI50 [10]: 10.3 µM
- TGI [10]: > 100 µM
- GI50 [11]: 40.7 µM
- TGI [11]: > 100 µM
- GI50 [12]: 14.6 µM
- TGI [12]: > 100 µM
- GI50 [13]: 7.22 µM
- TGI [13]: > 100 µM
- GI50 [14]: 2.62 µM
- TGI [14]: 8.89 µM
- GI50 [15]: 9.34 µM
- TGI [15]: > 100 µM
- GI50 [16]: 24.8 µM
- TGI [16]: > 100 µM
- GI50 [17]: 5.71 µM
- TGI [17]: 46.9 µM
- GI50 [18]: 49.5 µM
- TGI [18]: > 100 µM
- GI50 [19]: 27.8 µM
- TGI [19]: > 100 µM
- GI50 [20]: 15.6 µM
- TGI [20]: 76.7 µM
- GI50 [21]: 27.3 µM
- TGI [21]: > 100 µM
- GI50 [22]: 47.8 µM
- TGI [22]: > 100 µM
- GI50 [23]: 9.19 µM
- TGI [23]: > 100 µM
- GI50 [24]: 7.38 µM
- TGI [24]: > 100 µM
- GI50 [25]: 17.8 µM
- TGI [25]: 78.3 µM
- GI50 [26]: 20.5 µM
- TGI [26]: > 100 µM
- GI50 [27]: 33 µM
- TGI [27]: > 100 µM
- GI50 [28]: 4.43 µM
- TGI [28]: 21.4 µM
- GI50 [29]: 26.5 µM
- TGI [29]: 92.2 µM
- GI50 [30]: 21 µM
- TGI [30]: > 100 µM
- GI50 [31]: 16.7 µM
- TGI [31]: > 100 µM
- GI50 [32]: 3.18 µM
- TGI [32]: > 100 µM
- GI50 [33]: 16.1 µM
- TGI [33]: > 100 µM
- GI50 [34]: 46.5 µM
- TGI [34]: > 100 µM
- GI50 [35]: 21.1 µM
- TGI [35]: > 100 µM
- GI50 [36]: 13.4 µM
- TGI [36]: > 100 µM
- GI50 [37]: 20.8 µM
- TGI [37]: 97.6 µM
- GI50 [38]: 20.5 µM
- TGI [38]: 93 µM
- GI50 [39]: 26.5 µM
- TGI [39]: > 100 µM
- GI50 [40]: 29 µM
- TGI [40]: > 100 µM
- GI50 [41]: 40.9 µM
- TGI [41]: > 100 µM
- GI50 [42]: 14.8 µM
- TGI [42]: > 100 µM
- GI50 [43]: 45 µM
- TGI [43]: > 100 µM
- GI50 [44]: 25.3 µM
- TGI [44]: > 100 µM
- GI50 [45]: 53.2 µM
- TGI [45]: > 100 µM
- GI50 [46]: 24.9 µM
- TGI [46]: > 100 µM
- GI50 [47]: 41 µM
- TGI [47]: > 100 µM
- GI50 [48]: 33.5 µM
- TGI [48]: > 100 µM
- GI50 [49]: 19.6 µM
- TGI [49]: 76.3 µM
- GI50 [50]: 12.2 µM
- TGI [50]: 51.6 µM
- GI50 [51]: 16.8 µM
- TGI [51]: 73.3 µM
- GI50 [52]: 12.4 µM
- TGI [52]: > 100 µM

Compound: CCN(CC)CCn1[nH]c2c3ccc(=O)cc3sc3c(NCCN)ccc1c32
- TGI [1]: 8.94 µM
- TGI [2]: 3.32 µM
- TGI [3]: 14.5 µM
- TGI [4]: 2.54 µM
- TGI [5]: 11.5 µM
- TGI [6]: 0.719 µM
- TGI [8]: 10.1 µM
- TGI [9]: 1.52 µM
- TGI [10]: 7.13 µM
- TGI [12]: 2.19 µM
- TGI [13]: 16.7 µM
- TGI [15]: 13.6 µM
- TGI [16]: 2.3 µM
- TGI [17]: 3.96 µM
- TGI [18]: 6.2 µM
- TGI [19]: 8.57 µM
- TGI [20]: 1.42 µM
- TGI [21]: 2.75 µM
- TGI [23]: 1.03 µM
- TGI [24]: 1.77 µM
- TGI [26]: 1.48 µM
- TGI [27]: 2.73 µM
- TGI [28]: 0.383 µM
- TGI [31]: 1.25 µM
- TGI [32]: 8.17 µM
- TGI [33]: 2.28 µM
- TGI [34]: 4.87 µM
- TGI [35]: 12.7 µM
- TGI [36]: 1.97 µM
- TGI [53]: 3.43 µM
- TGI [54]: > 100 µM
- TGI [37]: 8.07 µM
- TGI [38]: 1.72 µM
- TGI [39]: 2.69 µM
- TGI [55]: 3.28 µM
- TGI [40]: 2.91 µM
- TGI [41]: 3.74 µM
- TGI [42]: 8.15 µM
- TGI [43]: 4.29 µM
- TGI [44]: 3.61 µM
- TGI [45]: 4.49 µM
- TGI [56]: 1.71 µM
- TGI [46]: 4.77 µM
- TGI [47]: 11.3 µM
- TGI [48]: 5.18 µM
- TGI [49]: 4.01 µM
- TGI [50]: 1.48 µM
- TGI [51]: 52.1 µM
- TGI [52]: 0.974 µM

Compound: C#CCN(C(=O)C(F)(F)F)c1ccc(C(=O)c2ccc(N(CC#C)C(=O)C(F)(F)F)cc2)cc1
- TGI [1]: > 100 µM
- TGI [3]: > 100 µM
- TGI [4]: > 100 µM
- TGI [6]: > 100 µM
- TGI [7]: 92.5 µM
- TGI [8]: > 100 µM
- TGI [9]: 55.1 µM
- TGI [57]: 63.9 µM
- TGI [10]: > 100 µM
- TGI [11]: > 100 µM
- TGI [12]: > 100 µM
- TGI [13]: 79.9 µM
- TGI [14]: 40.3 µM
- TGI [16]: > 100 µM
- TGI [17]: 81 µM
- TGI [18]: 45.4 µM
- TGI [19]: > 100 µM
- TGI [20]: 62.9 µM
- TGI [21]: > 100 µM
- TGI [22]: > 100 µM
- TGI [24]: > 100 µM
- TGI [25]: > 100 µM
- TGI [26]: > 100 µM
- TGI [27]: > 100 µM
- TGI [28]: 64.9 µM
- TGI [30]: 71.6 µM
- TGI [31]: > 100 µM
- TGI [58]: 49.4 µM
- TGI [32]: 88.6 µM
- TGI [33]: > 100 µM
- TGI [34]: > 100 µM
- TGI [35]: > 100 µM
- TGI [36]: 51.2 µM
- TGI [53]: > 100 µM
- TGI [54]: > 100 µM
- TGI [37]: > 100 µM
- TGI [38]: > 100 µM
- TGI [39]: 87.9 µM
- TGI [55]: > 100 µM
- TGI [40]: > 100 µM
- TGI [42]: > 100 µM
- TGI [43]: > 100 µM
- TGI [44]: > 100 µM
- TGI [45]: > 100 µM
- TGI [46]: > 100 µM
- TGI [47]: > 100 µM
- TGI [48]: > 100 µM
- TGI [49]: 86.6 µM
- TGI [50]: 54.1 µM
- TGI [51]: > 100 µM
